Data taken from patent US7553816B2, “p-amidobenzylethers in drug delivery agents” (priority 2001, dated 2009).
Values joined by “and” are separate entries in the source; they are usually repeats but may differ in a detail not shown here. Equal values may be shown once. Read-outs that look alike come from different tables or passages of the source.

Key:
[1] = target: T1, Bovine spleen cathepsin B (Bos taurus, UniProt P07688); format: biochemical; settings: for Products released upon treatment with cathepsin B: HPLC analysis
T1 construct: Bovine spleen cathepsin B (Sigma-Aldrich); purchased Sigma-Aldrich; host or cells: bovine spleen (tissue-derived)
Procedure: Bovine spleen cathepsin B (Sigma-Aldrich), dissolved in phosphate buffered saline (pH 7.2, 1 mg/mL final concentration), was activated as previously described (Bajkowski, A. S.; Frankfater, A. Specific Spectrophotometric Assays for Cathepsin B. Anal. Biochem. 1975, 68, 119-127). […] In the case of the naphthol ether 2, a 5.0 mM solution in MeOH was diluted to a final concentration of 0.22 mM. Periodically, aliquots were taken, quenched with an equal volume of MeCN, centrifuged, and 100 μL injections analyzed by HPLC (4.6 mm×15 cm C18 column) with detection between 210 and 400 nm. […] The gradient elution was 90% to 10% A over 10 min, followed by 5 min at 10% A, and the flow rate was 1.0 mL/min. The disappearance of substrate and the appearances of released alcohol and Cbz-val-cit were recorded. Cathepsin B hydrolysis rates were calculated according to the disappearance of substrate (Table 7).

[2] = Stability studies in PBS pH 7.2 or acetate buffer pH 5.1 at 37° C., HPLC; format: physicochemical; settings: for Stability pH 5.1, loss of starting material: acetate buffer pH 5.1, 37° C.; for Stability pH 5.1, loss of starting material / Stability pH 7.2, loss of starting material: 7 days; for Stability at pH 5.1 (in words): pH 5.1, 37° C.; for Stability at pH 5.1 (in words) / Stability at pH 7.2 (in words): absence of added enzyme; for Stability at pH 7.2 (in words): pH 7.2, 37° C.; for Stability pH 7.2, loss of starting material: phosphate buffered saline pH 7.2, 37° C.
Procedure: The other samples were injected directly into the HPLC.

[3] = system: L2987 human lung adenocarcinoma cells; experiment: In vitro cytotoxicity assay, [3H] thymidine incorporation; format: cell-based
Procedure: (§1) FIG. 1 is a graph showing the cytotoxic effects on L2987 human lung adenocarcinoma (A and D), WM266/4 (B), and IGR-39 (C) human melanoma cell lines. The cells were exposed to various concentrations of the drugs for 24 h, washed, incubated for a further 48 h, and the cytotoxic activities were quantified through the incorporation of [^3H] thymidine relative to untreated control cells.
(§2) The cell lines (L2987 human lung adenocarcinoma, WM266/4 and IGR-39 human melanomas) were exposed to the agents for 24 h, washed, and viability was determined two days later by measuring the incorporation of ^3H-thymidine compared to the untreated controls.
L2987 human lung adenocarcinoma cells were obtained as previously described (Svensson, H. P.; Vrudhula, V. M.; Emsweiler, J. E.; MacMaster, J. F.; Cosand, W. L.; Senter, P. D.; Wallace, P. M. In Vitro and In Vivo Activities of a Doxorubicin Prodrug in Combination with Monoclonal Antibody β-Lactamase Conjugates. Cancer Res. 1995, 55, 2357-2365). WM266/4 and IGR-39 human melanoma cells were obtained from ATCC (Manassas, Va.) and DSMZ (Braunschweig, Germany), respectively. L2987 and WM266/4 cells were grown in Roswell Park Memorial Institute (RPMI) medium containing 10% fetal bovine serum and 10U/mL penicillin G and 10 μg/mL streptomycin sulfate. Dulbecco's modified Eagle's medium was used in place of RPMI for the IGR-39 cells. The cells (2,500 cells in 0.1 mL medium) were plated into 96-well plates, and after 24 h at 37° C., various concentrations of the drugs in medium (50 μL) were added in triplicate. Incubation was continued for an additional 24 h, the cultures were washed, and fresh medium (0.15 mL) was added. After 48 h at 37° C., [^3H] thymidine (25 μL, 0.5 μCi/well) was added, and the cultures were frozen and harvested 4 h later. Incorporation of label was measured using a β-counter.

[4] = pooled human serum, 37° C.; for Stability Human serum, loss of starting material: 7 days
Procedure: Solutions of the substrates (0.08-0.14 mM in DMSO, and 0.22 mM in MeOH for 2) were diluted 10-20-fold in PBS, acetate buffer (25 mM, pH 5.1), or pooled human serum, and incubation was carried out at 37° C. For the serum studies, equal volumes of MeCN were added and the samples were centrifuged prior to HPLC analysis. The other samples were injected directly into the HPLC.

[5] = system: IGR-39 human melanoma cells; settings: 24 h exposure, 48 h further, range stated for all three cell lines
Procedure: as §1, §2
(§3) L2987 human lung adenocarcinoma cells were obtained as previously described (Svensson, H. P.; Vrudhula, V. M.; Emsweiler, J. E.; MacMaster, J. F.; Cosand, W. L.; Senter, P. D.; Wallace, P. M. In Vitro and In Vivo Activities of a Doxorubicin Prodrug in Combination with Monoclonal Antibody β-Lactamase Conjugates. Cancer Res. 1995, 55, 2357-2365). WM266/4 and IGR-39 human melanoma cells were obtained from ATCC (Manassas, Va.) and DSMZ (Braunschweig, Germany), respectively. L2987 and WM266/4 cells were grown in Roswell Park Memorial Institute (RPMI) medium containing 10% fetal bovine serum and 10U/mL penicillin G and 10 μg/mL streptomycin sulfate. […] Incorporation of label was measured using a β-counter.

[6] = system: WM266/4 human melanoma cells; settings: 24 h exposure, 48 h further, range stated for all three cell lines
Procedure: as §1, §2, §3

cathepsin B = settings: cited from earlier work
[7] = loss of starting material at 37° C. in pH 5.1 acetate buffer

Molecule | Products released upon treatment with cathepsin B [1] | Specific activity of cathepsin B [1, 7] [nmol/ nmol/min/mg] | Stability pH 5.1, loss of starting material [2] | Stability at pH 5.1 (in words) [2] | Stability at pH 7.2 (in words) [2] | Stability pH 7.2, loss of starting material [2] | also measured
COc1ccc(/C=C\c2cc(OC)c(OC)c(OC)c2)cc1OCc1ccc(NC(=O)[C@H](CCCNC(N)=O)NC(=O)[C@@H](NC(=O)OCc2ccccc2)C(C)C)cc1 [Compound 7, CBZ-VAL-CIT-PAB-3′-O-COMBRETASTATIN A-4] | combretastatin A-4 (VIIIb) | 61 | 0% loss, 7 days | stable | stable | 0% loss, 7 days | Factor less potent than combretastatin A-4 (VIIIb) ([3]; L2987 human lung adenocarcinoma cells (FIG. 1D)): 13; Stability in human serum (in words) [4]: stable; Stability Human serum, loss of starting material [4]: 0% loss, 7 days
CBZ-VAL-CIT-PAB-OCO-(1S, 2R)-(N-ACETYL)NOREPHEDRINE [Compound 10] | formation of 4 | 150 | – | – | – | – | –
COc1ccc(/C=C\c2cc(OC)c(OC)c(OC)c2)cc1OC(=O)OCc1ccc(NC(=O)[C@H](CCCNC(N)=O)NC(=O)[C@@H](NC(=O)OCc2ccccc2)C(C)C)cc1 [Compound 11, CBZ-VAL-CIT-PAB-OCO-COMBRETASTATIN A-4] | VIIIb | 32 | – | – | – | – | Stability in aqueous environments (in words) ([2]; aqueous environments): unstable; Cytotoxicity compared with combretastatin A-4 (VIIIb), in words ([3]; FIG. 1D): as cytotoxic as combretastatin A-4 (VIIIb)
CBZ-VAL-CIT-PAB-O-(N-AC)-NOR [Compound 5] | no N-acetylnorephedrine was detected | 145 | 0% loss 7 d | – | – | 0% loss 7 d | –
COc1cc([C@@H]2c3cc4c(cc3[C@@H](O[C@@H]3O[C@@H]5CO[C@@H](C)O[C@H]5[C@H](O)[C@H]3O)[C@H]3COC(=O)[C@H]23)OCO4)cc(OC)c1OCc1ccc(NC(=O)[C@H](CCCNC(N)=O)NC(=O)[C@@H](NC(=O)OCc2ccccc2)C(C)C)cc1 [Compound 6, CBZ-VAL-CIT-PAB-O-ETOPOSIDE] | release of etoposide (VIIIa) | 160 | 0% loss, 7 days | stable | stable | 0% loss, 7 days | Cytotoxic activity, times etoposide (VIIIa) more active than 6 ([3]; L2987, 24 h exposure, 48 h further, range stated for all three cell lines): 15-22 times; Cytotoxic activity, times etoposide (VIIIa) more active than 6 [5]: 15-22 times; Cytotoxic activity, times etoposide (VIIIa) more active than 6 [6]: 15-22 times
CC(C)[C@H](NC(=O)OCc1ccccc1)C(=O)N[C@@H](CCCNC(N)=O)C(=O)Nc1ccc(COc2cccc3ccccc23)cc1 [Compound 2, CBZ-VAL-CIT-PAB-1-O-NAPHTHOL] | the products formed were naphthol and Cbz-val-cit-COOH | – | 0% loss, 7 days | no breakdown | no breakdown | 0% loss, 7 days | Specific activity of cathepsin B ([1]; pH 5.1): 350 nmol/min/mg and 350 nmol/ nmol/min/mg; Stability in human serum (in words) [4]: no breakdown; Stability Human serum, loss of starting material [4]: 0% loss, 7 days
COc1cccc2c1C(=O)c1c(O)c3c(c(O)c1C2=O)CC(O)(C(=O)CO)CC3OC1CC(NC(=O)OCc2ccc(NC(=O)C(CCCNC(N)=O)NC(=O)C(NC(=O)OCc3ccccc3)C(C)C)cc2)C(O)C(C)O1 (stereo not shown) [Cbz-val-cit-PAB-doxorubicin carbamate] | – | – | – | – | – | – | Release of drug upon treatment with cathepsin B (cathepsin B): released active doxorubicin
